From ChEMBL document CHEMBL1140493, “Quantitative structure-activity relationship studies for prediction of antimicrobial activity of synthesized 2,4-hexadienoic acid derivatives” (Bioorg Med Chem Lett, 2007) come the findings set out here.

For one data set, the system named is Candida albicans. Kind of data set: Antifungal activity against Candida albicans after 2 days by twofold serial dilution method. It counts as functional. Particulars: 48 h, read-out: -Log MIC.
A further data set has as its system Aspergillus niger. Kind of data set: Antifungal activity against Aspergillus niger after 7 days by twofold serial dilution method. In kind it is functional. Particulars: 168 h, read-out: -Log MIC.
The next data set concerns Staphylococcus aureus. Description: Antimicrobial activity against Staphylococcus aureus after 24 hrs by twofold serial dilution method. Particulars: read-out: -Log MIC. In kind it is functional.
The test system of a further data set is Bacillus subtilis. Kind of data set: Antimicrobial activity against Bacillus subtilis after 24 hrs by twofold serial dilution method. In kind it is functional. Conditions: read-out: -Log MIC.
A short description of data set [1]: Partition coefficient, log P of the compound. Particulars: octanol/water.
The test system of a further data set is Escherichia coli. Kind of data set: Antimicrobial activity against Escherichia coli after 24 hrs by twofold serial dilution method. Conditions: read-out: -Log MIC. It counts as functional.

Values after ≈ are worked out from the molar mass of the structure shown.

Broadly, the MIC is the lowest concentration that inhibits growth of the organism. A word on the logP: it is a log measure of how a compound divides between an organic and an aqueous phase. On to `C/C=C/C=C/C(=O)N1CCOCC1`, for which the MIC is 63.1 µM (≈ 11.4 µg/mL) in the data set with Candida albicans, 79.4 µM (≈ 14.4 µg/mL) in the data set with Aspergillus niger, 69.2 µM (≈ 12.5 µg/mL) in the data set with Staphylococcus aureus and 55 µM (≈ 9.97 µg/mL) in the data set with Bacillus subtilis. Besides, the logP in data set [1] came out at 0.75.
Take `C/C=C/C=C/C(=O)N1CCCCC1`: the MIC in the data set with Candida albicans is 69.2 µM (≈ 12.4 µg/mL); with Aspergillus niger, 63.1 µM (≈ 11.3 µg/mL); in the data set with Staphylococcus aureus, 77.6 µM (≈ 13.9 µg/mL); in the data set with Bacillus subtilis it was 61.7 µM (≈ 11.1 µg/mL). In data set [1], this compound returned a logP of 1.82.
On to `C/C=C/C=C/C(=O)N(CCO)CCO`, for which the MIC stood at 91.2 µM (≈ 18.2 µg/mL) in the data set with Escherichia coli, 50.1 µM (≈ 9.98 µg/mL) with Candida albicans, 79.4 µM (≈ 15.8 µg/mL) in the data set with Staphylococcus aureus and 63.1 µM (≈ 12.6 µg/mL) in the data set on Bacillus subtilis. In data set [1], this compound had a logP of 0.21.
Turning to `C/C=C/C=C/C(=O)OCCCC`, the MIC amounted to 74.1 µM (≈ 12.5 µg/mL) in the data set on Candida albicans, 74.1 µM (≈ 12.5 µg/mL) in the data set with Aspergillus niger, 100 µM (≈ 16.8 µg/mL) in the data set on Staphylococcus aureus and 74.1 µM (≈ 12.5 µg/mL) with Bacillus subtilis. In data set [1], this compound had a logP of 2.71.
For `C/C=C/C=C/C(=O)OC(C)C`, the MIC in the data set on Candida albicans came to 63.1 µM (≈ 9.73 µg/mL); in the data set on Aspergillus niger, 56.2 µM (≈ 8.67 µg/mL); in the data set on Staphylococcus aureus, 81.3 µM (≈ 12.5 µg/mL); with Bacillus subtilis it was 63.1 µM (≈ 9.73 µg/mL). For the same compound, the logP in data set [1] was found to be 2.26.
As to `C/C=C/C=C/C(=O)OC(C)CC` (stereo not given), the figures for the MIC with Candida albicans, in the data set with Aspergillus niger and in the data set on Bacillus subtilis were 74.1 µM (≈ 12.5 µg/mL), 83.2 µM (≈ 14 µg/mL) and 74.1 µM (≈ 12.5 µg/mL), respectively. In data set [1], the logP amounted to 2.72.
Regarding `C/C=C/C=C/C(=O)N(C)C`, the MIC worked out at 63.1 µM (≈ 8.78 µg/mL) in the data set with Candida albicans, 79.4 µM (≈ 11.1 µg/mL) with Aspergillus niger, 79.4 µM (≈ 11.1 µg/mL) with Staphylococcus aureus and 72.4 µM (≈ 10.1 µg/mL) in the data set with Bacillus subtilis. In data set [1], the logP is 1.1.
Regarding `C/C=C/C=C/C(=O)NCCO`, the MIC in the data set on Candida albicans was found to be 81.3 µM (≈ 12.6 µg/mL); with Bacillus subtilis, 91.2 µM (≈ 14.2 µg/mL). In data set [1], this compound returned a logP of 0.41.
In the case of `C/C=C/C=C/C(=O)Nc1ccccc1`, the MIC with Candida albicans stood at 66.1 µM (≈ 12.4 µg/mL); in the data set with Aspergillus niger, 74.1 µM (≈ 13.9 µg/mL); in the data set on Bacillus subtilis, 66.1 µM (≈ 12.4 µg/mL). This compound came in with a logP in data set [1] of 2.53.
In the case of `C/C=C/C=C/C(=O)Oc1ccccc1`, the minimal inhibitory concentration (MIC) was determined as 74.1 µM (≈ 13.9 µg/mL) in the data set with Escherichia coli; 56.2 µM (≈ 10.6 µg/mL) in the data set on Candida albicans; 47.9 µM (≈ 9.02 µg/mL) with Aspergillus niger; 95.5 µM (≈ 18 µg/mL) in the data set with Staphylococcus aureus; 58.9 µM (≈ 11.1 µg/mL) in the data set with Bacillus subtilis. For the same compound, the logP in data set [1] was 3.18.
In the case of `C/C=C/C=C/C(=O)N(c1ccccc1)c1ccccc1`, the MIC is 58.9 µM (≈ 15.5 µg/mL) in the data set with Escherichia coli; 47.9 µM (≈ 12.6 µg/mL) in the data set on Candida albicans; 39.8 µM (≈ 10.5 µg/mL) in the data set on Aspergillus niger; 50.1 µM (≈ 13.2 µg/mL) in the data set with Staphylococcus aureus; 38 µM (≈ 10 µg/mL) in the data set with Bacillus subtilis. This compound also returned a logP in data set [1] of 4.46.
For `O=C(O)c1cn(C2CC2)c2cc(N3CCNCC3)c(F)cc2c1=O` [CIPROFLOXACIN], the MIC in the data set on Escherichia coli, in the data set with Staphylococcus aureus and in the data set with Bacillus subtilis was 0.468 µM (≈ 0.155 µg/mL) throughout.
Consider `C/C=C/C=C/C(=O)NCC`, for which the MIC in the data set on Candida albicans worked out at 79.4 µM (≈ 11.1 µg/mL); with Aspergillus niger it was 89.1 µM (≈ 12.4 µg/mL); in the data set on Bacillus subtilis, 89.1 µM (≈ 12.4 µg/mL). The compound also displayed a logP in data set [1] of 1.19.
As to `C/C=C/C=C/C(=O)OCCC`, the MIC in the data set with Candida albicans amounted to 70.8 µM (≈ 10.9 µg/mL); with Aspergillus niger, 81.3 µM (≈ 12.5 µg/mL); in the data set with Bacillus subtilis, 70.8 µM (≈ 10.9 µg/mL). The compound also gave a logP in data set [1] of 2.31.
For the compound `C/C=C/C=C/C(=O)Nc1cccc(C)c1`, the MIC with Escherichia coli was 79.4 µM (≈ 16 µg/mL); in the data set with Candida albicans, 61.7 µM (≈ 12.4 µg/mL); in the data set on Aspergillus niger, 61.7 µM (≈ 12.4 µg/mL); in the data set on Staphylococcus aureus, 61.7 µM (≈ 12.4 µg/mL); in the data set with Bacillus subtilis it was 47.9 µM (≈ 9.64 µg/mL). The compound also displayed a logP in data set [1] of 3.
On to `C/C=C/C=C/C(=O)OCc1ccccc1`, for which the MIC in the data set on Escherichia coli stood at 100 µM (≈ 20.2 µg/mL); with Candida albicans it was 61.7 µM (≈ 12.5 µg/mL); with Aspergillus niger, 70.8 µM (≈ 14.3 µg/mL); in the data set with Staphylococcus aureus, 63.1 µM (≈ 12.8 µg/mL); with Bacillus subtilis, 69.2 µM (≈ 14 µg/mL). In data set [1], the logP was 3.28.
Consider `C/C=C/C=C/C(=O)Nc1ccccc1N`, for which the MIC in the data set with Escherichia coli amounted to 69.2 µM (≈ 14 µg/mL); in the data set on Candida albicans, 61.7 µM (≈ 12.5 µg/mL); with Aspergillus niger it was 69.2 µM (≈ 14 µg/mL); with Staphylococcus aureus, 63.1 µM (≈ 12.8 µg/mL); in the data set with Bacillus subtilis, 49 µM (≈ 9.91 µg/mL). The compound further showed a logP in data set [1] of 1.75.
As to `C/C=C/C=C/C(=O)NC`, the MIC was 79.4 µM (≈ 9.94 µg/mL) with Candida albicans, 79.4 µM (≈ 9.94 µg/mL) with Aspergillus niger, 100 µM (≈ 12.5 µg/mL) in the data set with Staphylococcus aureus and 79.4 µM (≈ 9.94 µg/mL) in the data set on Bacillus subtilis. In addition, the logP in data set [1] came out at 0.85.
`C/C=C/C=C/C(=O)NCc1ccccc1`: the MIC in the data set with Escherichia coli was found to be 100 µM (≈ 20.1 µg/mL); in the data set on Candida albicans it was 61.7 µM (≈ 12.4 µg/mL); with Aspergillus niger, 61.7 µM (≈ 12.4 µg/mL); with Staphylococcus aureus, 70.8 µM (≈ 14.2 µg/mL); with Bacillus subtilis, 61.7 µM (≈ 12.4 µg/mL). For the same compound, in data set [1], the logP turned out to be 2.63.
For `C/C=C/C=C/C(=O)Nc1ccc(C)cc1`, the MIC was found to be 100 µM (≈ 20.1 µg/mL) with Escherichia coli; 55 µM (≈ 11.1 µg/mL) in the data set with Candida albicans; 34.7 µM (≈ 6.98 µg/mL) with Aspergillus niger; 61.7 µM (≈ 12.4 µg/mL) with Staphylococcus aureus; 55 µM (≈ 11.1 µg/mL) with Bacillus subtilis. In data set [1], this compound returned a logP of 3.
`C/C=C/C=C/C(=O)OCCCCC`: the MIC is 100 µM (≈ 18.2 µg/mL) in the data set on Escherichia coli; 50.1 µM (≈ 9.13 µg/mL) with Candida albicans; 69.2 µM (≈ 12.6 µg/mL) in the data set on Aspergillus niger; 79.4 µM (≈ 14.5 µg/mL) in the data set on Staphylococcus aureus; 63.1 µM (≈ 11.5 µg/mL) in the data set with Bacillus subtilis. In data set [1], this compound had a logP of 3.1.
